In patent US9914760B2, “Methods of identifying, isolating and using odorant and aroma receptors” (Firmenich SA, priority 2013, dated 2018):

Key:
Test in all cases: cell-based calcium-flux assay, HEK293T with Gα15
OR11G2 = target: T1, OR11G2 (Homo sapiens, UniProt Q8NGC1); details: increasing concentrations; FIG. 6C
T1 construct: expressed in transfected cells
T1 sequence (Q8NGC1 35-345): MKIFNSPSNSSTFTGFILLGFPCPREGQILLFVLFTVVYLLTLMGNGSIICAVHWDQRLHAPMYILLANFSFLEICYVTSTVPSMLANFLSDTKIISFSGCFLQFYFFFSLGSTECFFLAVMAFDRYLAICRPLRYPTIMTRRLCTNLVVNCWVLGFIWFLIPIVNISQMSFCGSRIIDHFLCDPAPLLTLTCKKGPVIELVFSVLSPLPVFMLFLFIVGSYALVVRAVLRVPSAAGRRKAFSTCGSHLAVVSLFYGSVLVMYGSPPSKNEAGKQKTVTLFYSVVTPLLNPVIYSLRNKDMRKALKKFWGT
Text: (§1) The activity of candidate human indole and skatole malodors receptors OR52N2 (SEQ ID NO: 11 and SEQ ID NO: 12), OR11G2 (SEQ ID NO: 13 and SEQ ID NO: 14, OR5AC2 (SEQ ID NO: 75 and SEQ ID NO: 76), OR4C15 (SEQ ID NO: 79 and SEQ ID NO: 80), OR8S1 (SEQ ID NO: 83 and SEQ ID NO: 84), OR11H6 (SEQ ID NO: 15 and SEQ ID NO: 16) and OR11H4 (SEQ ID NO: 49 and SEQ ID NO: 50) and candidate mouse indole and skatole malodors receptors Olfr665 (SEQ ID NO: 9 and SEQ ID NO 10) and Olfr740 (SEQ ID NO: 1 and SEQ ID NO 2) were confirmed in cell-based calcium-flux assays (FIGS. 6A to 6J). Cells stably co-expressing Rho-tagged human OR52N2 (FIG. 6A, B) or OR11G2 (FIG. 6C) and Gα15 (SEQ ID NO: 25) were exposed to increasing concentrations of skatole or indole. FIG. 6B is a repeat experiment showing similar activity of OR52N2 with indole and skatole. Odorant-induced OR52N2 or OR11G2 activity was detected by measuring the maximum Calcium 5 dye (Molecular Devices) fluorescence change following odorant exposure. Activity is defined as the baseline corrected Relative Fluorescent Units (RFU) ratios normalized to the highest RFU in the experiment in FIG. 6A. […] A cell line lacking a receptor, for example hOR52N2, was used as a control for non-specific activity at high concentrations (‘Indole control’ and ‘Skatole control’). The human receptor OR52N2 (SEQ ID NO: 11 and SEQ ID NO: 12) was identified because of its sequence similarity to mouse Olfr665 (SEQ ID NO: 10), an indole/skatole receptor isolated from olfactory neurons responding to both indole and skatole. The human receptor OR11G2 (SEQ ID NO: 13 and SEQ ID NO: 14) was identified because of its sequence similarity to mouse Olfr740 (SEQ ID NO: 2), an indole/skatole receptor isolated from olfactory neurons responding to both indole and skatole. The receptors were modified with the Rho sequence and stably expressed in HEK 293T cells. Further examples show indole and skatole dose-response curves for human receptors OR5AC2, OR4C15, OR8S1, OR11H6, OR11H4 and mouse receptors Olfr665 and Olfr740 (FIG. 6D-J). The human receptor OR5AC2 (SEQ ID NO: 75 and SEQ ID NO: 76) was identified because of its sequence similarity to mouse Olfr207 (SEQ ID NO: 78), a receptor isolated from olfactory neurons responding to both indole and skatole. The human receptor OR4C15 (SEQ ID NO: 79 and SEQ ID NO: 80) was identified because of its sequence similarity to mouse Olfr211 (SEQ ID NO: 82), a receptor isolated from olfactory neurons responding to both indole and skatole. The human receptor OR8S1 (SEQ ID NO: 83 and SEQ ID NO: 84) was identified because of its sequence similarity to mouse Olfr257 (SEQ ID NO: 86), a receptor isolated from olfactory neurons responding to both indole and skatole. The human receptor OR11H6 (SEQ ID NO: 15 and SEQ ID NO: 16) was identified because of its sequence similarity to mouse Olfr745 (SEQ ID NO: 8), a receptor isolated from olfactory neurons responding to both indole and skatole. The human receptor OR11H4 (SEQ ID NO: 49 and SEQ ID NO: 50) was identified because of its sequence similarity to mouse Olfr746 (SEQ ID NO: 38), a receptor isolated from olfactory neurons responding to both indole and skatole. The mouse receptor Olfr665 (SEQ ID NO: 9 and SEQ ID NO: 10) was identified directly from NGS data from isolated olfactory neurons responding to both indole and skatole. The mouse receptor Olfr740 (SEQ ID NO: 1 and SEQ ID NO: 2) was identified directly from NGS data from isolated olfactory neurons responding to both indole and skatole. Co-expression of the human G alpha subunit Gα15 activates the Gq transduction pathway that leads to an internal Ca2+ increase upon binding to the appropriate ligand.

OR52N2 = target: T2, OR52N2 (Homo sapiens, UniProt Q8NGI0); details: increasing concentrations; FIG. 6A, B
T2 construct: expressed in transfected cells
T2 sequence (Q8NGI0 1-321): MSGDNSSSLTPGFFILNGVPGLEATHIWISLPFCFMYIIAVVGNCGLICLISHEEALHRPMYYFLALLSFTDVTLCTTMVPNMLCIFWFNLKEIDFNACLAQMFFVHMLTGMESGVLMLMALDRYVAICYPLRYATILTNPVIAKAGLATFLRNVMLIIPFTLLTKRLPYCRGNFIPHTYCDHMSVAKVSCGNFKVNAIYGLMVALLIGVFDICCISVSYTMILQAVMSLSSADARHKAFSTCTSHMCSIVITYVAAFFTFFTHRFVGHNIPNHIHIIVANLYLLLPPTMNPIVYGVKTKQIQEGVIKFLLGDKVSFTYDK
Text: as §1

OR5AC2 = target: T3, OR5AC2 (Homo sapiens, UniProt Q9NZP5); details: dose-response curves FIG. 6D-J
T3 construct: expressed in transfected cells
T3 sequence (Q9NZP5 1-309): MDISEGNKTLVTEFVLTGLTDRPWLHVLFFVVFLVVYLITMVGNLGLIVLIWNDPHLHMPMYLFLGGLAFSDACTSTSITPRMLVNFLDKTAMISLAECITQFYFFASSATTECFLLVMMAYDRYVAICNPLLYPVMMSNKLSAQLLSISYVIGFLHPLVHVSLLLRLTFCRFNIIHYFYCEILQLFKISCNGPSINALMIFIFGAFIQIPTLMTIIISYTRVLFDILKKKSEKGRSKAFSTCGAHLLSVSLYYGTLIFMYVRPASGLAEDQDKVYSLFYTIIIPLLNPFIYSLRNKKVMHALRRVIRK
Text: as §1

Compound	receptor activity (Calcium 5 dye fluorescence change) (OR11G2)	receptor activity (Calcium 5 dye fluorescence change) (OR52N2)	receptor response in vitro (OR5AC2)
c1ccc2[nH]ccc2c1 [indole]	dose-dependent increase of receptor activity	dose-dependent increase of receptor activity	responded
Cc1c[nH]c2ccccc12 [skatole, 3-methyl indole]	dose-dependent increase of receptor activity	dose-dependent increase of receptor activity	responded
